Reference: patent publication US20240368177A1, “5-AMINO-6,8-DIHYDRO-1H-FURO[3,4-d]PYRROLO[3,2-b]PYRIDINE-2-CARBOXAMIDE DERIVATIVES AS MTA-COOPERATIVE INHIBITORS OF PRMT5” (BeiGene Switzerland GmbH, priority 2023, published 2024)

Columns and labels:
HCT116-MTAP-KO = experiment: Cell killing in HCT116 isogenic pair (Cell Titer-Glo viability), MTAP knock-out cells; format: cell-based, human; conditions: Homo sapiens, HCT-116, 144 h, 6 days incubation, 0-10 μM, * = more than 50% viability inhibition at tested concentration without a full curve
Text: (§1) HCT116 cell line (ATCC, CCL-247) was isolated from the colon of an adult with colon cancer. It has a mutation in codon 13 of the ras proto-oncogene and can be used as a positive control for PCR assays of mutation in this codon. HCT116-MTAP-KO was knocked-out-MTAP-gene based HCT116, and a single clone was passed for this assay. HCT116-mock-RNA-KO was knocked-out-mock-gene based HCT116 with MTAP wildtype genotype. The base medium for HCT116 isogenic pair is RPMI 1640, HEPES (Gibco, 22400105). To make the complete growth medium, added the following components to the base medium: fetal bovine serum to a final concentration of 10% (Gibco, 10099-141C). The cell line was grown in a humidified 5% CO2 atmosphere at 37° C. and regularly tested for the presence of mycoplasma with MpcoAlert™ PLUS Mycoplasma Detection Kit (Lonzak LT07-710).
(§2) • Seeded HCT116-mock-RNA-KO (4E2/well) or HCT116-MTAP-KO (4E2/well) cells into a 96-well plate (Greiner: 655090), 100 μL/well. • Incubated at 37° C., 5% CO2, overnight. • Added 50 μL fresh growth medium containing serial dilution of test compounds for a final test compound concentration of 0-10 μM to each well. • Incubated at 37° C., 5% CO2, 6 days. • The cell viability was detected by Cell Titer-Glo (Promega, G7573). Added 70 μL of CeliTiter-Glo® reagent in each well. • Incubated at room temperature for 10 minutes to stabilize luminescent signal. • Analyzed with Microplate Reader (TECAN, SPARK) and fit IC50 using Prism® 9.

HCT116-mock-RNA-KO = experiment: Cell killing in HCT116 isogenic pair (Cell Titer-Glo viability), mock knock-out cells with MTAP wildtype genotype; format: cell-based, human; conditions: Homo sapiens, HCT-116, 144 h, 6 days incubation, 0-10 μM
Text: as §1, §2

| SMILES | IC50 (HCT116-MTAP-KO) [nM] | IC50 (HCT116-mock-RNA-KO) [nM] |
| --- | --- | --- |
| CO[C@@H]1CCOC[C@H]1N(Cc1ccc(-c2c(F)cccc2F)cn1)C(=O)c1cc2nc(N)c3c(c2[nH]1)CO[C@@H]3C [Example 23, (R)-5-amino-N-((5-(2,6-difluorophenyl)pyridin-2-yl)methyl)-N-((3R,4R)-4-methoxytetrahydro-2H-pyran-3-yl)-6-methyl-6,8-dihydro-1H-furo[3,4-d]pyrrolo[3,2-b]pyridine-2-carboxamide] | 4.8 | 81 |
| CO[C@@H]1CCOC[C@H]1N(Cc1ccc(-c2c(F)cccc2F)cn1)C(=O)c1cc2nc(N)c3c(c2[nH]1)CO[C@H]3C [Example 24, (S)-5-amino-N-((5-(2,6-difluorophenyl)pyridin-2-yl)methyl)-N-((3R,4R)-4-methoxytetrahydro-2H-pyran-3-yl)-6-methyl-6,8-dihydro-1H-furo[3,4-d]pyrrolo[3,2-b]pyridine-2-carboxamide] | 103 | 8540 |
| Cn1ncnc1-c1ccc(CN(C(=O)c2cc3nc(N)c4c(c3[nH]2)COC4)[C@@H]2CCCc3cccnc32)nc1 [Example 25, (R)-5-amino-N-((5-(1-methyl-1H-1,2,4-triazol-5-yl)pyridin-2-yl)methyl)-N-(5,6,7,8-tetrahydroquinolin-8-yl)-6,8-dihydro-1H-furo[3,4-d]pyrrolo[3,2-b]pyridine-2-carboxamide] | 96 | 2000 |
| CO[C@@H]1CCOC[C@H]1N(Cc1ccc(C(F)(F)F)cn1)C(=O)c1cc2nc(N)c3c(c2[nH]1)COC3 [Example 26, 5-amino-N-((3R,4R)-4-methoxytetrahydro-2H-pyran-3-yl)-N-((5-(trifluoromethyl)pyridin-2-yl)methyl)-6,8-dihydro-1H-furo[3,4-d]pyrrolo[3,2-b]pyridine-2-carboxamide] | 14 | 1870 |
| CO[C@@H]1CCOC[C@H]1N(Cc1ccc(-c2ccccc2)cn1)C(=O)c1cc2nc(N)c3c(c2[nH]1)COC3 [Example 27, 5-amino-N-((3R,4R)-4-methoxytetrahydro-2H-pyran-3-yl)-N-((5-phenylpyridin-2-yl)methyl)-6,8-dihydro-1H-furo[3,4-d]pyrrolo[3,2-b]pyridine-2-carboxamide] | 2.4 | 284 |
| CO[C@@H]1CCOC[C@H]1N(Cc1ccc(-c2ccncc2)cn1)C(=O)c1cc2nc(N)c3c(c2[nH]1)COC3 [Example 28, N-([3,4′-bipyridin]-6-ylmethyl)-5-amino-N-((3R,4R)-4-methoxytetrahydro-2H-pyran-3-yl)-6,8-dihydro-1H-furo[3,4-d]pyrrolo[3,2-b]pyridine-2-carboxamide] | 11 | 1900 |
| Nc1nc2cc(C(=O)N(Cc3ccc(-c4ccncc4)cn3)Cc3c(F)cccc3F)[nH]c2c2c1COC2 [Example 29, N-([3,4′-bipyridin]-6-ylmethyl)-5-amino-N-(2,6-difluorobenzyl)-6,8-dihydro-1H-furo[3,4-d]pyrrolo[3,2-b]pyridine-2-carboxamide] | 1.3 | 81 |
| Nc1nc2cc(C(=O)N(Cc3ccc(-c4c(F)cncc4F)cn3)Cc3c(F)cccc3F)[nH]c2c2c1COC2 [Example 30, 5-amino-N-((3′,5′-difluoro-[3,4′-bipyridin]-6-yl)methyl)-N-(2,6-difluorobenzyl)-6,8-dihydro-1H-furo[3,4-d]pyrrolo[3,2-b]pyridine-2-carboxamide] | 0.8 | 22 |
| Nc1nc2cc(C(=O)N(Cc3ccc(-c4c(F)cncc4F)cn3)Cc3c(Cl)cccc3Cl)[nH]c2c2c1COC2 [Example 31, 5-amino-N-(2,6-dichlorobenzyl)-N-((3′,5′-difluoro-[3,4′-bipyridin]-6-yl)methyl)-6,8-dihydro-1H-furo[3,4-d]pyrrolo[3,2-b]pyridine-2-carboxamide] | 1.2 | 7.1 |
| N#Cc1ccc(CN(Cc2c(F)cccc2F)C(=O)c2cc3nc(N)c4c(c3[nH]2)COC4)nc1 [Example 32, 5-amino-N-((5-cyanopyridin-2-yl)methyl)-N-(2,6-difluorobenzyl)-6,8-dihydro-1H-furo[3,4-d]pyrrolo[3,2-b]pyridine-2-carboxamide] | 3.9 | 451 |
| Nc1nc2cc(C(=O)N(Cc3c(F)cccc3F)CC3CC3)[nH]c2c2c1COC2 [Example 33, 5-amino-N-(cyclopropylmethyl)-N-(2,6-difluorobenzyl)-6,8-dihydro-1H-furo[3,4-d]pyrrolo[3,2-b]pyridine-2-carboxamide] | 210 | > 10000 |
| CO[C@@H]1CCOC[C@H]1N(Cc1ncc(C(F)(F)F)cc1F)C(=O)c1cc2nc(N)c3c(c2[nH]1)COC3 [Example 34, 5-amino-N-((3-fluoro-5-(trifluoromethyl)pyridin-2-yl)methyl)-N-((3R,4R)-4-methoxytetrahydro-2H-pyran-3-yl)-6,8-dihydro-1H-furo[3,4-d]pyrrolo[3,2-b]pyridine-2-carboxamide] | 7.4 | 1350 |
| C[C@H](c1ncccn1)N(Cc1ncc(C(F)(F)F)cc1F)C(=O)c1cc2nc(N)c3c(c2[nH]1)COC3 [Example 35, (R)-5-amino-N-((3-fluoro-5-(trifluoromethyl)pyridin-2-yl)methyl)-N-(1-(pyrimidin-2-yl)ethyl)-6,8-dihydro-1H-furo[3,4-d]pyrrolo[3,2-b]pyridine-2-carboxamide] | 11 | 1530 |
| CO[C@@H]1CCOC[C@H]1N(Cc1ccc(C2CC2)cn1)C(=O)c1cc2nc(N)c3c(c2[nH]1)COC3 [Example 36, 5-amino-N-((5-cyclopropylpyridin-2-yl)methyl)-N-((3R,4R)-4-methoxytetrahydro-2H-pyran-3-yl)-6,8-dihydro-1H-furo[3,4-d]pyrrolo[3,2-b]pyridine-2-carboxamide] | 5.8 | 445 |
| Nc1nc2cc(C(=O)N(Cc3ccc(C(F)(F)F)nn3)Cc3c(F)cccc3F)[nH]c2c2c1COC2 [Example 37, 5-amino-N-(2,6-difluorobenzyl)-N-((6-(trifluoromethyl)pyridazin-3-yl)methyl)-6,8-dihydro-1H-furo[3,4-d]pyrrolo[3,2-b]pyridine-2-carboxamide] | 13 | 1680 |
| C[C@H]1OCc2c1c(N)nc1cc(C(=O)N(Cc3ccc(C(F)(F)F)cn3)Cc3ncccc3F)[nH]c21 [Example 38, (R)-5-amino-N-((3-fluoropyridin-2-yl)methyl)-6-methyl-N-((5-(trifluoromethyl)pyridin-2-yl)methyl)-6,8-dihydro-1H-furo[3,4-d]pyrrolo[3,2-b]pyridine-2-carboxamide] | 6.3 | 665 |
| CN(C(=O)c1cc2nc(N)c3c(c2[nH]1)COC3)[C@H]1COCc2cc(C(F)(F)F)ccc21 [Example 39, (R)-5-amino-N-methyl-N-(7-(trifluoromethyl)isochroman-4-yl)-6,8-dihydro-1H-furo[3,4-d]pyrrolo[3,2-b]pyridine-2-carboxamide] | 1170 | > 10000 |
| CN(C(=O)c1cc2nc(N)c3c(c2[nH]1)COC3)[C@@H]1COCc2cc(C(F)(F)F)ccc21 [Example 40, (S)-5-amino-N-methyl-N-(7-(trifluoromethyl)isochroman-4-yl)-6,8-dihydro-1H-furo[3,4-d]pyrrolo[3,2-b]pyridine-2-carboxamide] | 13 | 2490 |
| C[C@H](c1ncccn1)N(Cc1ncc(Br)cc1F)C(=O)c1cc2nc(N)c3c(c2[nH]1)COC3 [Example 41, (R)-5-amino-N-((5-bromo-3-fluoropyridin-2-yl)methyl)-N-(1-(pyrimidin-2-yl)ethyl)-6,8-dihydro-1H-furo[3,4-d]pyrrolo[3,2-b]pyridine-2-carboxamide] | 6.6 | 586 |
| Nc1nc2cc(C(=O)N(Cc3ncccn3)Cc3ncc(C(F)(F)F)cc3F)[nH]c2c2c1COC2 [Example 42, 5-amino-N-((3-fluoro-5-(trifluoromethyl)pyridin-2-yl)methyl)-N-(pyrimidin-2-ylmethyl)-6,8-dihydro-1H-furo[3,4-d]pyrrolo[3,2-b]pyridine-2-carboxamide] | 24 | 2500 |
| N#Cc1cc(F)c(CN(Cc2ncccc2F)C(=O)c2cc3nc(N)c4c(c3[nH]2)COC4)c(F)c1 [Example 43, 5-amino-N-(4-cyano-2,6-difluorobenzyl)-N-((3-fluoropyridin-2-yl)methyl)-6,8-dihydro-1H-furo[3,4-d]pyrrolo[3,2-b]pyridine-2-carboxamide] | 2.9 | 207 |
| COC[C@@H](C)N(Cc1ncc(C(F)(F)F)cc1F)C(=O)c1cc2nc(N)c3c(c2[nH]1)COC3 [Example 44, (R)-5-amino-N-((3-fluoro-5-(trifluoromethyl)pyridin-2-yl)methyl)-N-(1-methoxypropan-2-yl)-6,8-dihydro-1H-furo[3,4-d]pyrrolo[3,2-b]pyridine-2-carboxamide] | 8.2 | 568 |
